According to PMC10174618, “Monoterpenoid aryl hydrocarbon receptor allosteric antagonists protect against ultraviolet skin damage in female mice” (Nature Communications, 2023):

Tests used:
Assay in all cases: biochemical
Set-up in all cases: KINOMEscan scanMAX active site-directed competition binding assay, percent of control, 468 kinases
Conditions in all cases: competition binding, percent of control
[1] = target: T1, ABL1(F317L)-nonphosphorylated (Homo sapiens, UniProt P00519, F317L)
T1 construct: nonphosphorylated
How it was run: (§1)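 KINOMEscan active site-directed competition binding assay against 468 human kinases with 100 μM S-carvone. Binding expressed as % of control, with 35% of control as the inhibition threshold.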

[2] = target: ACVRL1 (Homo sapiens, UniProt P37023)
How it was run: as §1

[3] = target: T2, ADCK3 (Homo sapiens, UniProt Q8NI60)
T2 construct: gene COQ8A
How it was run: as §1

[4] = target: T3, AMPK-alpha2 (Homo sapiens, UniProt P54646)
T3 construct: gene PRKAA2
How it was run: as §1

[5] = target: CDKL2 (Homo sapiens, UniProt Q92772)
How it was run: as §1

[6] = target: EGFR(G719S) (Homo sapiens, UniProt P00533, G719S)
How it was run: as §1

[7] = target: EPHA6 (Homo sapiens, UniProt Q9UF33)
How it was run: as §1

[8] = target: EPHB4 (Homo sapiens, UniProt P54760)
How it was run: as §1

[9] = target: ERBB3 (Homo sapiens, UniProt P21860)
How it was run: as §1

[10] = target: T4, HPK1 (Homo sapiens, UniProt Q92918)
T4 construct: gene MAP4K1
How it was run: as §1

[11] = target: T5, IKK-beta (Homo sapiens, UniProt O14920)
T5 construct: gene IKBKB
How it was run: as §1

[12] = target: T6, JAK3(JH1domain-catalytic) (Homo sapiens, UniProt P52333)
T6 construct: JH1domain-catalytic
How it was run: as §1

[13] = target: KIT (Homo sapiens, UniProt P10721)
How it was run: as §1

[14] = target: MAP4K2 (Homo sapiens, UniProt Q12851)
How it was run: as §1

[15] = target: MAP4K4 (Homo sapiens, UniProt O95819)
How it was run: as §1

[16] = target: MAPKAPK5 (Homo sapiens, UniProt Q8IW41)
How it was run: as §1

[17] = target: MARK2 (Homo sapiens, UniProt Q7KZI7)
How it was run: as §1

[18] = target: NEK6 (Homo sapiens, UniProt Q9HC98)
How it was run: as §1

[19] = target: PAK1 (Homo sapiens, UniProt Q13153)
How it was run: as §1

[20] = target: PIK3CG (Homo sapiens, UniProt P48736)
How it was run: as §1

[21] = target: STK39 (Homo sapiens, UniProt Q9UEW8)
How it was run: as §1

[22] = target: TNK2 (Homo sapiens, UniProt Q07912)
How it was run: as §1

Sequence of MAP4K4 (O95819 whole entry): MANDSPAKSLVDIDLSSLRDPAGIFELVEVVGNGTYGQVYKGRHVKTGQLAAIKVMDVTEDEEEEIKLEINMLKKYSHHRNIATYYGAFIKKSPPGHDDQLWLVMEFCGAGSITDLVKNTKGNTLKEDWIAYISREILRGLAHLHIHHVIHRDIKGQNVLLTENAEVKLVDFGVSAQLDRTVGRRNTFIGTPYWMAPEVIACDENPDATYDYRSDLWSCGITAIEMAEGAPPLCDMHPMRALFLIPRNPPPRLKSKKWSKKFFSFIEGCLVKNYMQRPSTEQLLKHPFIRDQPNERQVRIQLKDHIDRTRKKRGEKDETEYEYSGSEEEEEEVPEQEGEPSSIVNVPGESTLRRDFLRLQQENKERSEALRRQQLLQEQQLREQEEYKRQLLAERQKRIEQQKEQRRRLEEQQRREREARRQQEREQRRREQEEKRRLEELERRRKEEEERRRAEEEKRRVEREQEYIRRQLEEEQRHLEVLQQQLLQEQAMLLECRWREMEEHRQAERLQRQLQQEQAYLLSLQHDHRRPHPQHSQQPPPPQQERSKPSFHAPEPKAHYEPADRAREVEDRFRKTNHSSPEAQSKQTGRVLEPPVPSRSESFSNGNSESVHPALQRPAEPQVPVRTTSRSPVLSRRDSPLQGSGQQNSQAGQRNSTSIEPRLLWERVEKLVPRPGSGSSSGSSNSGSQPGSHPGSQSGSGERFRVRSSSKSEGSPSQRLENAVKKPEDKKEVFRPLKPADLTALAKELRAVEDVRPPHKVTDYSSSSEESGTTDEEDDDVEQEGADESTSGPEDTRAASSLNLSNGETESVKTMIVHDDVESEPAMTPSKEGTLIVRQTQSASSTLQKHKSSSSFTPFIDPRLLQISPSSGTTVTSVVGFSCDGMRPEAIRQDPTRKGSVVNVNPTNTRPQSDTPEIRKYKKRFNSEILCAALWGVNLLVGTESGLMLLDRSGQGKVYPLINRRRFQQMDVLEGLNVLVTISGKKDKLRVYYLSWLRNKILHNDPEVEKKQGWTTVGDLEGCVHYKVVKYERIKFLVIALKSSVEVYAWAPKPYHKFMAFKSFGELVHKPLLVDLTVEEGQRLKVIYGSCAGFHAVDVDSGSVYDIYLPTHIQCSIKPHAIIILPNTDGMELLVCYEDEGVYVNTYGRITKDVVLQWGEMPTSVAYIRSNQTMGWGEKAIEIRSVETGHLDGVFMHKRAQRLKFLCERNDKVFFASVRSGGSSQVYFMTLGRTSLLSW
T1 sequence (P00519 whole entry F317L): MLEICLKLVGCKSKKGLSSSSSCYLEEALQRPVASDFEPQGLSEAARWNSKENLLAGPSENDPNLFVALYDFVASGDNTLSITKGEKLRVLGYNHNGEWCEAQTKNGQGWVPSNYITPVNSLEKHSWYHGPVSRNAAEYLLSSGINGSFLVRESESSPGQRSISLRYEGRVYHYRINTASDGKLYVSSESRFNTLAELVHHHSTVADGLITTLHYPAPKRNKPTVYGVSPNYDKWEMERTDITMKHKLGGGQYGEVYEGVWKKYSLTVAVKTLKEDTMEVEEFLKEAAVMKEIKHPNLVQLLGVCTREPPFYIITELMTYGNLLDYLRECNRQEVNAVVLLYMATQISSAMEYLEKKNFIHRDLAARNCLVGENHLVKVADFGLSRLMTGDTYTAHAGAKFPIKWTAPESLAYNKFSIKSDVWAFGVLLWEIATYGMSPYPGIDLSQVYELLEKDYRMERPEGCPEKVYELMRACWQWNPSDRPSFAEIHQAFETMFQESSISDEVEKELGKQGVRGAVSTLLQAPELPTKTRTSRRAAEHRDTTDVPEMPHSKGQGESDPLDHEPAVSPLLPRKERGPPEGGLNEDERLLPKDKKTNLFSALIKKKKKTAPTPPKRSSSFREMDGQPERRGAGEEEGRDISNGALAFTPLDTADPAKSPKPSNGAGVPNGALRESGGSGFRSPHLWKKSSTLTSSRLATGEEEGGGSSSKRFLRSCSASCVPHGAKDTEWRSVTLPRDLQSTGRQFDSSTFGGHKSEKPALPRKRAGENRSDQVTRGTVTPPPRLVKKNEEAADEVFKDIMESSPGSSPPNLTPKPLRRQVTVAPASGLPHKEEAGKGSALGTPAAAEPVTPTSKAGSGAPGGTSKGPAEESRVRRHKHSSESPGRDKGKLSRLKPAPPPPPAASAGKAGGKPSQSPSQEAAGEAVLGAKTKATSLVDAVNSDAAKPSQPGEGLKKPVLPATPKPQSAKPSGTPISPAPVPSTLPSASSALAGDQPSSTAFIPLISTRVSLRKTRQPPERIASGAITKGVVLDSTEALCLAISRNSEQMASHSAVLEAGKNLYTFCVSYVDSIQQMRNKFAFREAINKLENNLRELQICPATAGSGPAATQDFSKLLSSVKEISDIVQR
T3 sequence (P54646 whole entry): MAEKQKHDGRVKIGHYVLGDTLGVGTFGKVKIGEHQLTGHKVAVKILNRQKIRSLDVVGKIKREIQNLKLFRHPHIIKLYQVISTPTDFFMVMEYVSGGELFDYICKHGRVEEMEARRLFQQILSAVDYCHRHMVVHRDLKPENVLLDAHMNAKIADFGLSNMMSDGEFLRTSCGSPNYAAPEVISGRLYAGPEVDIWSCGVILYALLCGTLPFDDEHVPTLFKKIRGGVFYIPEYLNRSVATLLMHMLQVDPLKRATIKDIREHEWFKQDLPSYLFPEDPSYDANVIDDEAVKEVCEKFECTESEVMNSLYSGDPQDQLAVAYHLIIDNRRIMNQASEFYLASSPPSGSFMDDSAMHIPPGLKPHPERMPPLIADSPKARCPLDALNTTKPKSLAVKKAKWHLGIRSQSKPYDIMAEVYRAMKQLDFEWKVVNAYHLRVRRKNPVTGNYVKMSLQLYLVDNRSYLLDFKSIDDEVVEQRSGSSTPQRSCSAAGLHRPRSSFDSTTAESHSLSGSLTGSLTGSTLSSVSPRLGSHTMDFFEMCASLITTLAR
T2 sequence (Q8NI60 whole entry): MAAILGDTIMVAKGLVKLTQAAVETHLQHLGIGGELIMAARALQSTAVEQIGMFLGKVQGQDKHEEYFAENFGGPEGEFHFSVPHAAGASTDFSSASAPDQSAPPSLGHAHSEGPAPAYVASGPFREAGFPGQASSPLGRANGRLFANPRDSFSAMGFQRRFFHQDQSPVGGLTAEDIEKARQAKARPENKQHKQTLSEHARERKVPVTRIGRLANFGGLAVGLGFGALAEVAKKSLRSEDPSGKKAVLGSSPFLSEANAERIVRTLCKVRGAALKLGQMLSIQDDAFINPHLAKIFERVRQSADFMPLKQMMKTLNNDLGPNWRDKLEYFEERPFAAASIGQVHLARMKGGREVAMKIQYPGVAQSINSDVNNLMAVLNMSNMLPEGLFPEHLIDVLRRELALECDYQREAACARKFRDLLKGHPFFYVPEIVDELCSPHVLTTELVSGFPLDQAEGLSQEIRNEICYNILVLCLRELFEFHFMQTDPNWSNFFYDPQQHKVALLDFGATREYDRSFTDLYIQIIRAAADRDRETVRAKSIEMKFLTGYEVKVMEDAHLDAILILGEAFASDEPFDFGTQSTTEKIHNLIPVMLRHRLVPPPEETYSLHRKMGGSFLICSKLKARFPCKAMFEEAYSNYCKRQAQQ
Sequence of ACVRL1 (P37023 whole entry): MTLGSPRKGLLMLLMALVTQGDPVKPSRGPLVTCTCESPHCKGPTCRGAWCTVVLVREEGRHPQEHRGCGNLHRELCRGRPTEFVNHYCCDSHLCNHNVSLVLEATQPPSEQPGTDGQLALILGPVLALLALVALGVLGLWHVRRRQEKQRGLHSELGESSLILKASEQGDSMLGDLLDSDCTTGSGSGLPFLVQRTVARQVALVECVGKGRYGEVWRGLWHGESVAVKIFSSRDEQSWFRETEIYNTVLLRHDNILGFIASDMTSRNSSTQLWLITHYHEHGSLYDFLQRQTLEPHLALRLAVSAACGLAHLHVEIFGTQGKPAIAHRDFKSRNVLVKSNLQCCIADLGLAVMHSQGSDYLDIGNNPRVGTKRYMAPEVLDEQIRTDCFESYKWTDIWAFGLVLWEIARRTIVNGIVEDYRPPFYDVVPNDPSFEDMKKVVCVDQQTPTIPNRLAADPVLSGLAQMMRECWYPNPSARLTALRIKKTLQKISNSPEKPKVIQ
T4 sequence (Q92918 whole entry): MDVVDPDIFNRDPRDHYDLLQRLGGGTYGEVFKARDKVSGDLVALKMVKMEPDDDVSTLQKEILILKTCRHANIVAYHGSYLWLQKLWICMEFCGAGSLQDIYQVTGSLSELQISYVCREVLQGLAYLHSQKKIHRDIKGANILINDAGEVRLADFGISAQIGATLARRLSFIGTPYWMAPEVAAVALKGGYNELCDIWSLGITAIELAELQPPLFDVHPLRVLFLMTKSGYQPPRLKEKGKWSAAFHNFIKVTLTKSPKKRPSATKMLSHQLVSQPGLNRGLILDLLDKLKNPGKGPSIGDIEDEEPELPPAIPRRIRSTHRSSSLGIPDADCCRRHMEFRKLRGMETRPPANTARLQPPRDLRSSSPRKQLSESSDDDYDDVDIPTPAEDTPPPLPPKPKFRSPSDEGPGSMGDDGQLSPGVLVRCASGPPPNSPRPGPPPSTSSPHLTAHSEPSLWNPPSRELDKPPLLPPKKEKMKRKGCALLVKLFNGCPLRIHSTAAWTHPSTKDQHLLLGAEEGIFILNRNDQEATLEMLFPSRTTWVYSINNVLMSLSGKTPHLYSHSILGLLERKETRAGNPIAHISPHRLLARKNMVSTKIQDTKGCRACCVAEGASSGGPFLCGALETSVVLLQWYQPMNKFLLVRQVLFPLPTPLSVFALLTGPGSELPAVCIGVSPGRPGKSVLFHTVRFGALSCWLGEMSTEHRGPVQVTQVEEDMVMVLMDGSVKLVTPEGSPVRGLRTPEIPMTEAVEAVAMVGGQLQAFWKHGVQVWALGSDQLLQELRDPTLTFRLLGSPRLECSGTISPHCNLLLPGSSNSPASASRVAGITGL

remaining binding at 100 µM [1]: 78%
remaining binding at 100 µM [2]: 88%
remaining binding at 100 µM [3]: 66%
remaining binding at 100 µM [4]: 88%
remaining binding at 100 µM [5]: 85%
remaining binding at 100 µM [6]: 72%
remaining binding at 100 µM [7]: 64%
remaining binding at 100 µM [8]: 68%
remaining binding at 100 µM [9]: 78%
remaining binding at 100 µM [10]: 80%
remaining binding at 100 µM [11]: 72%
remaining binding at 100 µM [12]: 90%
remaining binding at 100 µM [13]: 82%
remaining binding at 100 µM [14]: 94%
remaining binding at 100 µM [15]: 85%
remaining binding at 100 µM [16]: 87%
remaining binding at 100 µM [17]: 100%
remaining binding at 100 µM [18]: 84%
remaining binding at 100 µM [19]: 66%
remaining binding at 100 µM [20]: 69%
remaining binding at 100 µM [21]: 80%
remaining binding at 100 µM [22]: 93%
SMILES: C=C(C)[C@H]1CC=C(C)C(=O)C1 [S-carvone]
